Assay results taken from paper PMC4940876, “Post-paralysis tyrosine kinase inhibition with masitinib abrogates neuroinflammation and slows disease progression in inherited amyotrophic lateral sclerosis” (Journal of Neuroinflammation, 2016).

Molecular target: T1, CSF-1R (colony-stimulating factor 1 receptor) (Homo sapiens, UniProt P07333)
T1 construct: gene CSF1R; CSF-1R kinase domain (AA 538–972), N-terminus 6HN-tagged, expressed in Sf21 cells
T1 sequence (P07333 538-972): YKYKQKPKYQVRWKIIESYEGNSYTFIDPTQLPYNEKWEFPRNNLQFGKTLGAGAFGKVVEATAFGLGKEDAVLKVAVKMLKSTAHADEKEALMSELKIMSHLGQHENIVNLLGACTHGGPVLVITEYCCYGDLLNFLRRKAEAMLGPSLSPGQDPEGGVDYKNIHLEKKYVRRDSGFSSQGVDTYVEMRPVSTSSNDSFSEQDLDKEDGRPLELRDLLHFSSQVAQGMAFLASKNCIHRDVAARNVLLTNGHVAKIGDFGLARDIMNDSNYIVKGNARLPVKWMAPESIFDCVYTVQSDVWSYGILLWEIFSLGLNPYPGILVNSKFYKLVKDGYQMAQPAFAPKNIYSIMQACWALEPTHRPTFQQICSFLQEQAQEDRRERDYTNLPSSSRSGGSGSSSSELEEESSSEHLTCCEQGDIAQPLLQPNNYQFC
Assay: HTRF KinEASE kinase assay with biotinylated poly(Glu4Tyr) peptide, […] ATP
Type: biochemical

Cc1ccc(NC(=O)c2ccc(CN3CCN(C)CC3)cc2)cc1Nc1nc(-c2cccnc2)cs1 [masitinib]
IC50: 90 ± 35 nM
